Results from US6552072B2, “Use of metal complexes to treat gastrointestinal infections” (Pfylori Limited, priority 1996, dated 2003).

Test system: H. pylori
Assay: In vitro minimum inhibitor concentrations (MICs) of metal-ligand complexes against H. pylori
Format: cell-based
Conditions: Example 1
Excerpt: In Vitro Minimum Inhibitor Concentrations (MICs) Using Metal-ligand Complexes
Study of MICs of Other Metal-ligands Against H. pylori

O=C([O-])CC(O)(CC(=O)[O-])C(=O)[O-].O=C([O-])CC(O)(CC(=O)[O-])C(=O)[O-].[Zn+2].[Zn+2].[Zn+2] [Zinc Citrate, Zinc citrate]
MIC against H. pylori: 8 to 64 µg/L

[O-][n+]1ccccc1[S-].[O-][n+]1ccccc1[S-].[Zn+2] [Zinc Salt]
MIC against H. pylori: >>64 μg/l

O=C(O)CC(O)(CC(=O)O)C(=O)O [Citrate]
MIC (Helicobacter pylori): > 0.064 µg/mL
